# Data taken from the supplement of paper PMC5303821, “Major sulfonate transporter Soa1 in Saccharomyces cerevisiae and considerable substrate diversity in its fungal family” (Nature Communications, 2017).
# Where a name gives a salt, the structure may show the parent alone.
# How the values were obtained:
# Settings in all cases: sulfur source concentration 200 µM; S. cerevisiae S288C/BY sul1Δ sul2Δ soa1Δ with transporter ortholog inserted at SOA1 locus; sulfur-free B medium, 4% glucose, pH 6.5, sole sulfur source
# [1] = system: Aspergillus nidulans (IAM 2006)_astA; assay: lag phase before growth; higher = slower start of growth
# Method: (§1)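 S. cerevisiae sul1Δ sul2Δ soa1Δ strains expressing 20 fungal SOA1 orthologs (or no transporter, 'soa1 del') were grown in liquid sulfur-free B medium, 4% glucose, pH 6.5 (7 mM K2HPO4). The strains were sulfur-starved for 3 days beforehand. Each sulfur compound was the sole sulfur source at 200 µM (sulfate also at 40 mM). OD600 curves of duplicate cultures were averaged and fitted (logistic / Richards, GroFit) to give maximal growth rate, maximal density and lag phase; temperature not stated.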
# [2] = system: Metarhizium robertsii_XP_007823832; assay: as above
# Method: as §1
# [3] = system: Ogataea parapolymorpha_XP_013935289; assay: as above
# Method: as §1
# [4] = system: Saccharomyces cerevisiae_SOA1; assay: as above
# Method: as §1
# [5] = system: Aspergillus nidulans (IAM 2006)_astA; assay: maximal culture density with compound as sole sulfur source (OD600); higher = better growth
# Method: as §1
# [6] = system: Aspergillus nidulans_CBF74694; assay: as above
# Method: as §1
# [7] = system: Aspergillus nidulans_CBF80346; assay: as above
# Method: as §1
# [8] = system: Aspergillus nidulans_XP_660563; assay: as above
# Method: as §1
# [9] = system: Aspergillus nidulans_XP_660670; assay: as above
# Method: as §1
# [10] = system: Aspergillus nidulans_XP_661711; assay: as above
# Method: as §1
# [11] = system: Aspergillus nidulans_XP_661733; assay: as above
# Method: as §1
# [12] = system: Aspergillus nidulans_XP_681611; assay: as above
# Method: as §1
# [13] = system: Fusarium oxysporum_ENH65823; assay: as above
# Method: as §1
# [14] = system: Metarhizium robertsii_XP_007821441; assay: as above
# Method: as §1
# [15] = system: Metarhizium robertsii_XP_007822519; assay: as above
# Method: as §1
# [16] = system: Metarhizium robertsii_XP_007823832; assay: as above
# Method: as §1
# [17] = system: Ogataea parapolymorpha_XP_013932458; assay: as above
# Method: as §1
# [18] = system: Ogataea parapolymorpha_XP_013935289; assay: as above
# Method: as §1
# [19] = system: Ogataea parapolymorpha_XP_013936897; assay: as above
# Method: as §1
# [20] = system: Saccharomyces cerevisiae_SOA1; assay: as above
# Method: as §1
# [21] = system: Saccharomyces eubayanus_SOA1; assay: as above
# Method: as §1
# [22] = system: Saccharomyces eubayanus_SOA2; assay: as above
# Method: as §1
# [23] = system: Saccharomyces uvarum_SOA1; assay: as above
# Method: as §1
# [24] = system: Saccharomyces uvarum_SOA2; assay: as above
# Method: as §1
# soa1 del [25] = assay: as above
# Method: as §1
# [26] = system: Aspergillus nidulans (IAM 2006)_astA; assay: maximal growth rate with compound as sole sulfur source (OD600 per h); higher = better growth / uptake of the sulfur source
# Method: as §1
# [27] = system: Aspergillus nidulans_CBF74694; assay: as above
# Method: as §1
# [28] = system: Aspergillus nidulans_CBF80346; assay: as above
# Method: as §1
# [29] = system: Aspergillus nidulans_XP_660563; assay: as above
# Method: as §1
# [30] = system: Aspergillus nidulans_XP_660670; assay: as above
# Method: as §1
# [31] = system: Aspergillus nidulans_XP_661711; assay: as above
# Method: as §1
# [32] = system: Aspergillus nidulans_XP_661733; assay: as above
# Method: as §1
# [33] = system: Aspergillus nidulans_XP_681611; assay: as above
# Method: as §1
# [34] = system: Fusarium oxysporum_ENH65823; assay: as above
# Method: as §1
# [35] = system: Metarhizium robertsii_XP_007821441; assay: as above
# Method: as §1
# [36] = system: Metarhizium robertsii_XP_007822519; assay: as above
# Method: as §1
# [37] = system: Metarhizium robertsii_XP_007823832; assay: as above
# Method: as §1
# [38] = system: Ogataea parapolymorpha_XP_013932458; assay: as above
# Method: as §1
# [39] = system: Ogataea parapolymorpha_XP_013935289; assay: as above
# Method: as §1
# [40] = system: Ogataea parapolymorpha_XP_013936897; assay: as above
# Method: as §1
# [41] = system: Saccharomyces cerevisiae_SOA1; assay: as above
# Method: as §1
# [42] = system: Saccharomyces eubayanus_SOA1; assay: as above
# Method: as §1
# [43] = system: Saccharomyces eubayanus_SOA2; assay: as above
# Method: as §1
# [44] = system: Saccharomyces uvarum_SOA1; assay: as above
# Method: as §1
# [45] = system: Saccharomyces uvarum_SOA2; assay: as above
# Method: as §1
# soa1 del [46] = assay: as above
# Method: as §1
# [47] = system: Saccharomyces uvarum_SOA2; assay: lag phase before growth; higher = slower start of growth
# Method: as §1
compound,measurement,setting,value
C[N+](C)(C)CCOS(=O)(=O)[O-] [Choline sulfate],lag phase before growth,[1],6.39 h
same,lag phase before growth,[2],8.32 h
same,lag phase before growth,[3],19.4 h
same,lag phase before growth,[4],28.7 h
same,maximal culture density,[5],1.61
same,maximal culture density,[6],0.215
same,maximal culture density,[7],0.245
same,maximal culture density,[8],0.381
same,maximal culture density,[9],0.282
same,maximal culture density,[10],0.282
same,maximal culture density,[11],0.257
same,maximal culture density,[12],0.352
same,maximal culture density,[13],0.284
same,maximal culture density,[14],0.25
same,maximal culture density,[15],0.238
same,maximal culture density,[16],1.61
same,maximal culture density,[17],0.288
same,maximal culture density,[18],1.6
same,maximal culture density,[19],0.335
same,maximal culture density,[20],1.59
same,maximal culture density,[21],0.49
same,maximal culture density,[22],0.202
same,maximal culture density,[23],0.69
same,maximal culture density,[24],0.237
same,maximal culture density,soa1 del [25],0.22
same,maximal growth rate,[26],0.0987
same,maximal growth rate,[27],0.00254
same,maximal growth rate,[28],0.00384
same,maximal growth rate,[29],0.0061
same,maximal growth rate,[30],0.00346
same,maximal growth rate,[31],0.00345
same,maximal growth rate,[32],0.00364
same,maximal growth rate,[33],0.0057
same,maximal growth rate,[34],0.00381
same,maximal growth rate,[35],0.00312
same,maximal growth rate,[36],0.00309
same,maximal growth rate,[37],0.0809
same,maximal growth rate,[38],0.00365
same,maximal growth rate,[39],0.072
same,maximal growth rate,[40],0.00441
same,maximal growth rate,[41],0.0576
same,maximal growth rate,[42],0.0058
same,maximal growth rate,[43],0.00319
same,maximal growth rate,[44],0.00649
same,maximal growth rate,[45],0.00318
same,maximal growth rate,soa1 del [46],0.00393
O=S(=O)(O)CCO [Isethionate],maximal culture density,[5],0.489
same,maximal culture density,[6],0.195
same,maximal culture density,[7],0.213
same,maximal culture density,[8],0.332
same,maximal culture density,[9],0.232
same,maximal culture density,[10],0.233
same,maximal culture density,[11],0.269
same,maximal culture density,[12],0.373
same,maximal culture density,[13],0.233
same,maximal culture density,[14],0.223
same,maximal culture density,[15],1.59
same,maximal culture density,[16],0.501
same,maximal culture density,[17],0.242
same,maximal culture density,[18],1.59
same,maximal culture density,[19],0.289
same,maximal culture density,[20],1.61
same,maximal culture density,[21],1.58
same,maximal culture density,[22],1.7
same,maximal culture density,[23],1.59
same,maximal culture density,[24],1.71
same,maximal culture density,soa1 del [25],0.235
same,maximal growth rate,[26],0.0178
same,maximal growth rate,[27],0.00301
same,maximal growth rate,[28],0.00382
same,maximal growth rate,[29],0.00647
same,maximal growth rate,[30],0.00369
same,maximal growth rate,[31],0.00367
same,maximal growth rate,[32],0.00489
same,maximal growth rate,[33],0.00854
same,maximal growth rate,[34],0.00374
same,maximal growth rate,[35],0.00324
same,maximal growth rate,[36],0.0519
same,maximal growth rate,[37],0.0144
same,maximal growth rate,[38],0.00421
same,maximal growth rate,[39],0.0699
same,maximal growth rate,[40],0.0049
same,maximal growth rate,[41],0.0707
same,maximal growth rate,[42],0.0612
same,maximal growth rate,[43],0.0595
same,maximal growth rate,[44],0.0659
same,maximal growth rate,[45],0.0695
same,maximal growth rate,soa1 del [46],0.00355
NCCS(=O)(=O)O [Taurine],lag phase before growth,[3],7.77 h
same,lag phase before growth,[4],9.53 h
same,lag phase before growth,[47],7.75 h
same,maximal culture density,[5],0.515
same,maximal culture density,[6],0.187
same,maximal culture density,[7],0.217
same,maximal culture density,[8],0.311
same,maximal culture density,[9],0.214
same,maximal culture density,[10],0.215
same,maximal culture density,[11],0.228
same,maximal culture density,[12],0.305
same,maximal culture density,[13],0.195
same,maximal culture density,[14],0.219
same,maximal culture density,[15],0.213
same,maximal culture density,[16],0.498
same,maximal culture density,[17],0.245
same,maximal culture density,[18],1.6
same,maximal culture density,[19],0.317
same,maximal culture density,[20],1.4
same,maximal culture density,[21],0.284
same,maximal culture density,[22],0.258
same,maximal culture density,[23],0.292
same,maximal culture density,[24],0.828
same,maximal culture density,soa1 del [25],0.217
same,maximal growth rate,[26],0.0198
same,maximal growth rate,[27],0.00281
same,maximal growth rate,[28],0.00339
same,maximal growth rate,[29],0.00581
same,maximal growth rate,[30],0.00383
same,maximal growth rate,[31],0.0038
same,maximal growth rate,[32],0.00417
same,maximal growth rate,[33],0.0063
same,maximal growth rate,[34],0.00349
same,maximal growth rate,[35],0.0033
same,maximal growth rate,[36],0.00328
same,maximal growth rate,[37],0.0141
same,maximal growth rate,[38],0.00448
same,maximal growth rate,[39],0.0523
same,maximal growth rate,[40],0.0048
same,maximal growth rate,[41],0.0291
same,maximal growth rate,[42],0.00369
same,maximal growth rate,[43],0.00328
same,maximal growth rate,[44],0.00382
same,maximal growth rate,[45],0.0111
same,maximal growth rate,soa1 del [46],0.00366
